In PubChem BioAssay AID330 (DTP/NCI, 2004):
“And” between values parts separate entries of the source, which are not always exact repeats. Equal values may be shown once. Toxic doses and inconclusive results are not listed. The calls were made as follows: active = survival T/C of 150% or more; inactive = T/C below 125% in these data.

System: P388 leukemia ip, CD2F1 mice, survival T/C
Experiment: NCI In Vivo Anticancer Drug Screen. Data for tumor model P388 Leukemia (intraperitoneal) in CD2F1 (CDF1) mice
Settings: endpoint: median survival time, higher = longer survival
How it was run: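 Mice carrying the transplanted tumor received test compound or vehicle. Survival was recorded in each group, and the value is the treated-group measurement divided by that of the vehicle-treated control group.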

[1] = dose: 100.0 mg/kg/injection, schedule: Q01DX001 (ip), vehicle: saline with Tween-80
[2] = dose: 200.0 mg/kg/injection, schedule: Q01DX001 (ip), vehicle: saline with Tween-80
[3] = dose: 400.0 mg/kg/injection, schedule: Q01DX001 (ip), vehicle: saline with Tween-80
[4] = dose: 50.0 mg/kg/injection, schedule: Q01DX009 (ip), vehicle: saline with Tween-80
[5] = dose: 100.0 mg/kg/injection, schedule: Q01DX009 (ip), vehicle: saline with Tween-80
[6] = dose: 50.0 mg/kg/injection, schedule: Q01DX005 (ip), vehicle: saline with Tween-80
[7] = dose: 100.0 mg/kg/injection, schedule: Q01DX005 (ip), vehicle: saline with Tween-80
[8] = dose: 200.0 mg/kg/injection, schedule: Q01DX005 (ip), vehicle: saline with Tween-80
[9] = dose: 50.0 mg/kg/injection, schedule: Q01DX009 (ip), vehicle: Klucel (hydroxypropylcellulose) (HPC)
[10] = dose: 100.0 mg/kg/injection, schedule: Q01DX009 (ip), vehicle: Klucel (hydroxypropylcellulose) (HPC)
[11] = dose: 200.0 mg/kg/injection, schedule: Q01DX009 (ip), vehicle: Klucel (hydroxypropylcellulose) (HPC)
[12] = dose: 50.0 mg/kg/injection, schedule: Q01DX009 (ip), vehicle: other
[13] = dose: 100.0 mg/kg/injection, schedule: Q04DX003 (ip), vehicle: saline with Tween-80
[14] = dose: 50.0 mg/kg/injection, schedule: Q01DX005 (ip), vehicle: saline
[15] = dose: 100.0 mg/kg/injection, schedule: Q01DX005 (ip), vehicle: saline

Measured: T/C

O=C(O)Cn1/c(=N\N=C\c2ccc([N+](=O)[O-])cc2)sc2ccccc21
inactive: [1] 91 % of control | [2] 89 % of control | [3] 99 % of control

C=C1OC(C)=C(C(=O)OC(C)(C)C)C1C (centres undefined)
inactive: [1] 106 % of control | [2] 102 % of control | [3] 105 % of control

CC(C)(C)N=C(CCN1CCOCC1)Nc1cccc(Cl)c1
inactive: [4] 100 % of control | [5] 96 % of control | dose: 200.0 mg/kg/injection, schedule: Q01DX009 (ip), vehicle: saline with Tween-80 97 % of control

Brc1ccc(-c2ccc3nnnn3n2)s1
inactive: dose: 50.0 mg/kg/injection, schedule: Q01DX005 (ip), vehicle: Klucel (hydroxypropylcellulose) (HPC) 91 % of control | dose: 100.0 mg/kg/injection, schedule: Q01DX005 (ip), vehicle: Klucel (hydroxypropylcellulose) (HPC) 95 % of control | dose: 200.0 mg/kg/injection, schedule: Q01DX005 (ip), vehicle: Klucel (hydroxypropylcellulose) (HPC) 87 % of control

CC(CO)(CO)N1C(=O)c2cccc3cc([N+](=O)[O-])cc(c23)C1=O
inactive: [6] 114 % of control | [7] 105 % of control | [8] 107 % of control

CCN(CC)CCNC(=O)c1nn(-c2ccccc2)c2c1CCCc1ccccc1-2
inactive: dose: 25.0 mg/kg/injection, schedule: Q04DX003 (ip), vehicle: Klucel (hydroxypropylcellulose) (HPC) 101 % of control | dose: 50.0 mg/kg/injection, schedule: Q04DX003 (ip), vehicle: Klucel (hydroxypropylcellulose) (HPC) 101 % of control | dose: 100.0 mg/kg/injection, schedule: Q04DX003 (ip), vehicle: Klucel (hydroxypropylcellulose) (HPC) 99 % of control and 92 % of control

O=C(O)c1cc(Nc2ccnc3cc(Cl)ccc23)ccc1O
inactive: dose: 100.0 mg/kg/injection, schedule: Q04DX002 (ip), vehicle: saline with Tween-80 98 % of control | dose: 200.0 mg/kg/injection, schedule: Q04DX002 (ip), vehicle: saline with Tween-80 97 % of control | dose: 400.0 mg/kg/injection, schedule: Q04DX002 (ip), vehicle: saline with Tween-80 98 % of control

COc1c(Br)cc(/C=C/[N+](=O)[O-])cc1Br
inactive: dose: 6.25 mg/kg/injection, schedule: Q01DX009 (ip), vehicle: saline with Tween-80 124 % of control | dose: 12.5 mg/kg/injection, schedule: Q01DX009 (ip), vehicle: saline with Tween-80 112 % of control

N#CC1C(=O)NC(=O)C(C#N)C1c1c2ccccc2cc2ccccc12 (centres undefined)
inactive: [9] 100 % of control | [10] 100 % of control | [11] 100 % of control

CC(=O)NC1=C(O)C2C(c3ccc(C)cc3)C(C#N)C(=O)N2C1=O (centres undefined)
inactive: dose: 100.0 mg/kg/injection, schedule: Q01DX001 (ip), vehicle: saline 105 % of control | dose: 200.0 mg/kg/injection, schedule: Q01DX001 (ip), vehicle: saline 97 % of control | dose: 400.0 mg/kg/injection, schedule: Q01DX001 (ip), vehicle: saline 99 % of control

O=C/C=C/C=C/C=C/c1ccccc1
inactive: dose: 60.0 mg/kg/injection, schedule: Q01DX005 (ip), vehicle: distilled water + alcohol 100 % of control | dose: 120.0 mg/kg/injection, schedule: Q01DX005 (ip), vehicle: distilled water + alcohol 100 % of control | dose: 240.0 mg/kg/injection, schedule: Q01DX005 (ip), vehicle: distilled water + alcohol 96 % of control

N#C/C(=N\Nc1ccccc1)C(N)=S
inactive: dose: 12.5 mg/kg/injection, schedule: Q01DX009 (ip), vehicle: other 109 % of control | dose: 25.0 mg/kg/injection, schedule: Q01DX009 (ip), vehicle: other 93 % of control | [12] 91 % of control

Cc1ccc([N+](=O)[O-])cc1NC(=O)COc1cc(Cl)c(Cl)cc1Cl
inactive: [13] 90 % of control | dose: 200.0 mg/kg/injection, schedule: Q04DX003 (ip), vehicle: saline with Tween-80 90 % of control | dose: 400.0 mg/kg/injection, schedule: Q04DX003 (ip), vehicle: saline with Tween-80 95 % of control

CCN(CC)CCCC(C)Nc1nccc2c(Cl)cccc12 (centres undefined)
inactive: [14] 108 % of control | [15] 109 % of control

CO[C@H]1/C=C/O[C@@]2(C)Oc3c(C)c(O)c4c(O)c(c(/C=N/N5C(C)CN(Cc6ccccc6)CC5C)c(O)c4c3C2=O)NC(=O)/C(C)=C\C=C\[C@H](C)[C@H](O)[C@@H](C)[C@@H](O)[C@@H](C)[C@H](OC(C)=O)[C@@H]1C (some centres undefined)
inactive: dose: 100.0 mg/kg/injection, schedule: Q01DX009 (ip), vehicle: saline sonified 90 % of control | dose: 200.0 mg/kg/injection, schedule: Q01DX009 (ip), vehicle: saline sonified 95 % of control

CC(C)(C)N1CS[C@@H]2CCCC[C@H]21
inactive: dose: 25.0 mg/kg/injection, schedule: Q01DX005 (ip), vehicle: saline 104 % of control | [14] 92 % of control | [15] 111 % of control

CCN1C[C@]2(COC)[C@H](O)C[C@H](OC)[C@]34C1[C@H]([C@H](OC)[C@H]23)[C@]1(OC(C)=O)[C@H]2[C@@H](OC(=O)c3ccccc3)[C@](O)(C[C@H]24)[C@@H](OC)[C@@H]1O
inactive: dose: 0.01 mg/kg/injection, schedule: Q01DX009 (ip), vehicle: saline 113 % of control and 88 % of control

CC1(C(N)=O)CO1 (centres undefined)
inactive: dose: 100.0 mg/kg/injection, schedule: Q04DX003 (ip), vehicle: saline 103 % of control | dose: 200.0 mg/kg/injection, schedule: Q04DX003 (ip), vehicle: saline 100 % of control | dose: 400.0 mg/kg/injection, schedule: Q04DX003 (ip), vehicle: saline 100 % of control

N#Cc1sc(=S)n(-c2ccccc2)c1N
inactive: dose: 12.5 mg/kg/injection, schedule: Q01DX009 (ip), vehicle: saline 98 % of control | dose: 25.0 mg/kg/injection, schedule: Q01DX009 (ip), vehicle: saline 107 % of control | dose: 50.0 mg/kg/injection, schedule: Q01DX009 (ip), vehicle: saline 103 % of control and 104 % of control

CCC[CH2][Sn]1([CH2]CCC)[S]CC[N]1S(=O)(=O)c1ccc(C)cc1
inactive: dose: 1.0 mg/kg/injection, schedule: Q01DX009 (ip), vehicle: gum acacia 114 % of control | dose: 1.5 mg/kg/injection, schedule: Q01DX009 (ip), vehicle: gum acacia 106 % of control | dose: 2.25 mg/kg/injection, schedule: Q01DX009 (ip), vehicle: gum acacia 120 % of control

CS(=O)(=O)OCC1NC(=O)C(COS(C)(=O)=O)NC1=O (centres undefined)
inactive: [12] 106 % of control and 103 % of control | dose: 100.0 mg/kg/injection, schedule: Q01DX009 (ip), vehicle: other 98 % of control and 103 % of control | dose: 200.0 mg/kg/injection, schedule: Q01DX009 (ip), vehicle: other 107 % of control | dose: 400.0 mg/kg/injection, schedule: Q01DX009 (ip), vehicle: other 103 % of control

Cc1nc2ccccc2c(=O)o1
inactive: [9] 97 % of control | [10] 98 % of control | dose: 100.0 mg/kg/injection, schedule: Q04DX002 (ip), vehicle: Klucel (hydroxypropylcellulose) (HPC) 105 % of control | [11] 90 % of control | dose: 200.0 mg/kg/injection, schedule: Q04DX002 (ip), vehicle: Klucel (hydroxypropylcellulose) (HPC) 107 % of control | dose: 400.0 mg/kg/injection, schedule: Q04DX002 (ip), vehicle: Klucel (hydroxypropylcellulose) (HPC) 100 % of control

CCCN1C(=O)CC(=O)N(CCC)P1(=O)OCC
inactive: dose: 100.0 mg/kg/injection, schedule: Q04DX002 (ip), vehicle: saline 101 % of control | dose: 200.0 mg/kg/injection, schedule: Q04DX002 (ip), vehicle: saline 108 % of control | dose: 400.0 mg/kg/injection, schedule: Q04DX002 (ip), vehicle: saline 101 % of control

CN(C)c1ccc(/C=C/c2ccc3ccccc3n2)cc1
inactive: dose: 25.0 mg/kg/injection, schedule: Q01DX009 (ip), vehicle: saline with Tween-80 95 % of control | [4] 100 % of control | [5] 100 % of control | [13] 100 % of control

O=C1c2ccccc2-c2n[nH]c3cccc1c23
inactive: [9] 101 % of control | [10] 102 % of control | [11] 96 % of control | dose: 400.0 mg/kg/injection, schedule: Q01DX009 (ip), vehicle: Klucel (hydroxypropylcellulose) (HPC) 95 % of control

CCOC(=O)c1cc(Br)c(=O)n(C)c1
inactive: [6] 96 % of control | [7] 95 % of control | [8] 89 % of control
